Counter-ions that a name gives are not always drawn.
How the values were obtained:
[1] = tested on: tumour necrosis factor-α (TNF-α); assay: Mouse Tumour Necrosis Factor Test (Test B), mouse endotoxin shock model, serum TNF-α by ELISA; type: in vivo, BALB/c mice; conditions: Mus musculus; minimum effective oral dose giving significant reduction in serum TNF-α of ≥35%; dosed 2 h before LPS i.p.; ≤ = active at dose given but not tested at lower doses; read-out: MTNF:MED
Source text: Preferred compounds of the present invention are active in an in-vivo test which determines the ability of the compounds to inhibit the release of tumour necrosis factor-α (TNF-α) in a mouse endotoxin shock model (Test B). This model is similar to that described by Zuckerman and Bendele (1989), Infection and Immunity 57 (10): p3009-3013.
Each compound of formula I was combined with a carrier of a solution of 1.5% v/v sorbitan esters under the trade name Tween 80 and 0.25% v/v cellosize in sterile water (100 µl) and was administered orally to a group of four BALB/c mice. The concentration of compound was such as to provide dosages selected from 100, 30, 10, 3, 1, 0.1 and 0.03 mg/kg. Two hours after such oral administration, lipopolysaccharide (LPS) (E. coli 0127:B8) (100 µg) in sterile water (0.2 ml) was administered intraperitoneally to the test mice.
A control group of eight BALB/c mice was treated in a similar manner as the test group except that no test compound was included with the carrier.
One hour after LPS administration the mice were killed and blood was collected by cardiac puncture. The blood was incubated at 20°C for 2 hours and the serum was separated from the clotted blood following centrifugation. Serum tumour necrosis factor-α (TNF-α) levels were assayed by an enzyme-linked immunosorbent assay (ELISA) and the concentration of TNF-α in each of the drug-treated groups was compared with the control group by one-way analysis of variance followed by a multiple t-test.
The ELISA was carried out by coating a 96-well vinyl assay plate (Costar) overnight at 4°C with 50 µl per well of 2 µg/ml hamster anti-mouse TNF monoclonal antibody in 0.1M sodium hydrogen carbonate buffer at pH 8.2. After washing the plate with phosphate buffered saline (PBS) containing 0.05% v/v sorbitan esters under the trade name Tween 20 (wash buffer), a blocking/dilution buffer (10% sheep serum in PBS containing 0.1% v/v sorbitan esters under the trade name Tween 20 (200 µl)) was aliquoted to each well and incubated at 37°C for 0.5 hours. After aspirating the blocking buffer, the serum samples and pure TNF (as a standard) diluted in blocking/dilution buffer, were added to the wells and incubated at 37°C for 2 hours. After washing with the wash buffer, a polyclonal rabbit anti-mouse TNF-α antibody in blocking/dilution buffer (100 µl of a 1 in 10,000 dilution) was added and incubated for a further 1.5 hours at 37°C. After further washes, anti-rabbit IgG peroxidase conjugate (100 µl of a 1 in 4000 dilution) was added and incubated at 37°C for 0.5 hours. After further washing, the substrate solution (100 µl per well of 0.1 mg/ml 3,3', 5,5'-tetramethylbenzidine dihydrochloride in 0.1M phosphate citrate buffer, pH 5.0, to which 2 µl of 30% hydrogen peroxide per 10 ml was added just before use) was added and the colour allowed to develop. The reaction was stopped by the addition of 1M sulphuric acid (25 µl) and the optical density read in a multichannel spectrophotometer at 450 nm. The mean TNF-α concentration was determined by comparison with the standard curve and the mean TNF-α concentration for each group compared with that produced by the control group. Drug treatments which cause a statistically significant reduction in TNF-α concentration of ≥35% at a single dose at 100 mg/kg or less were considered active.

[2] = tested on: Zymosan Stimulated Macrophages; assay: Inhibition of Arachidonic Acid Release from Zymosan Stimulated Macrophages (Test D); type: cell-based, MF1 mice; conditions: Mus musculus, Macrophage, tested at 100, 50, 20, 10, 5 and 1 µM
Protocol: Female MF1 mice (weighing 20 to 25 g) were killed using a rising concentration of CO2. The mice were laid on their backs and the abdomens wiped with 70% alcohol. The skin was pulled back, exposing the peritoneal wall. Medium A (5 ml) (see below) was injected into the peritoneal cavity of each mouse followed by approximately 1 ml of air using a 20 ml syringe and a 21G x 40 mm needle in order to form a suspension of macrophage cells. The medium and cells were then removed using a 19G x 40 mm needle. The resulting suspension was returned to a sterile beaker kept on ice. The extracts from all the mice were pooled and this pooled cell suspension was counted using a Coulter counter and adjusted to a final cell count of 1 - 1.3 x 10^6 cells/ml prior to labelling with [^3H]-arachidonic acid. Typically five mice provided sufficient cells for each multiwell plate. Sufficient [^3H]arachidonic acid in ethanol to give a final concentration of 1.6 µCi/ml (equivalent to 40 µCi/plate) was blown to dryness under nitrogen. The arachidonic acid was then resuspended in 1 or 2 ml of the cell suspension which was then mixed with the remainder of the cell suspension in a centrifuge bottle. The labelled cell suspension was then plated out into sterile plastic 96 flat-bottomed well plates (250 µl per well) and incubated overnight at 37°C in a moist atmosphere of 5% CO2, 95% air. The following day, non-adherent cells were removed by washing 3 times with sterile phosphate buffered saline (PBS). The adherent peritoneal macrophages were then cultured for a further 24 hours in the presence or absence of drugs, in medium B (see below) at 37° in a 5% CO2 atmosphere in order to measure the effects of drugs on the spontaneous release of arachidonic acid in the absence of stimulus. After this incubation, supernatants were removed to give media 1 and stored in sealed multi-well plates at 4°C prior to scintillation counting. Drugs which potentiated spontaneous release of arachidonic acid (125% of controls) were deemed to be toxic at the concentration at which this phenomenon occurred. The supernatants were replaced by fresh medium C containing fresh drug and a stimulus. Three drugs were tested at six concentrations (100, 50, 20, 10, 5 and 1 µM) in replicates of four on each plate. The other wells contained controls consisting of a positive control (e.g. dexamethasone), medium (B) only and medium C only. Incubation was then continued for a further 5 hours, whereupon the supernatants were collected to give media 2 and the adherent cells washed with PBS. The cells were then lysed with 100 µl of 0.1% TRITON® X100 in a 0.1% solution of bovine serum albumin in 0.9% saline and mechanically disrupted to give cell lysates. These supernatants (media 2) and cell lysates (Cells) were also stored in sealed multi-well plates at 4°C prior to scintillation counting. 200 µl aliquots of media, or 100 µl aliquots of cells were counted using 2 ml of OPTIPHASE "HIGH SAFE" (Trademark of LKB) as scintillant. […] The value for the arachidonic acid release in the absence of stimulus (spontaneous, cpm of media 2) from cells which had been exposed to neither stimulus nor drug was subtracted from all equivalent values (cpm media 2, stimulated with or without drug) to give the net stimulated release. The percentage inhibition of arachidonic acid release caused by a drug may then be calculated using the following equation. % Inhibition = 100 -(net stimulated release in presence of drug x 100)/(net stimulated release in absence of drug) [formula] […] The zymosan stimulant was prepared as follows:- zymosan (200mg) (supplied by Sigma) was added to PBS (20ml). The mixture was boiled for 30 minutes and the volume restored to 20ml with water. The zymosan was harvested by centrifugation at 500Xg for 5 minutes, washed twice by resuspension in PBS (10ml) and centrifugation. After the final separation, the zymosan was resuspended in 20ml PBS and stored as lml aliquots at -20°C. […]

[3] = tested on: lymphocyte proliferation (BALB/c responder and mitomycin C treated C57BL/6 stimulator spleen cells); assay: Mixed Lymphocyte Reaction (Test A), one-way MLR, tritiated thymidine incorporation; type: cell-based, mice; conditions: Mus musculus; concentration causing 50% inhibition of lymphocyte proliferation, by linear interpolation; ≤ = active at this concentration but not tested at lower doses
Protocol: A mixed lymphocyte reaction (MLR) occurs when lymphocytes from two genetically dissimilar individuals, or inbred strains of mice are cultured together. An MLR results in the activation and proliferation of lymphocytes, which is measured by the incorporation of radiolabelled thymidine into the cellular DNA synthesised during cell division. A 'one-way' MLR is used to determine the immunosuppressive activity of test compounds in vitro. In this reaction one population of spleen cells serves as the stimulator cells and is treated with mitomycin C to prevent cell division. Spleen cells from a second allogeneic population (responder cells) are untreated and when mixed with the stimulator cells are able to undergo division which is measured. The degree of proliferation is measured in the presence and absence of test compound to assess the immunosuppressive activity of the compound.
The techniques for carrying out lymphocyte proliferation assays including MLRs are well known, eg Bradley, pages 156-166, in Mishell and Shiigi, Eds. Selected Methods in Cellular Immunology (Freeman, San Francisco, 1980); and Battisto et al, methods in Enzymology 1987; 150: 83-91. Various slight modifications of these techniques are in use and that used herein is described in Gibb, Webber and Bowen, J Immunological Methods 1985; 81: 107-113.
Cell suspensions obtained from the spleens of female BALB/c and C57BL/6 strain mice of between 6 and 9 weeks of age were used as sources of responder and stimulator cells respectively. The mice were killed using a rising concentration of CO2 and the spleens removed aseptically and teased using a scalpel and forceps to produce a single cell suspension in Hanks balanced salt solution (HBSS). The suspensions were filtered through cell strainers (Falcon), sedimented by centrifugation and resuspended in Tris-buffered ammonium chloride pH 7.2 (medium D) to lyse the erythrocytes. The cells were sedimented again and washed twice in HBSS before resuspending in complete RPMI 1640 tissue culture medium (medium E). The C57BL/6 cells were resuspended to 9 mls per spleen and a solution of mitomycin C at 400 µg/ml in medium E added to give a final concentration of 40 µg/ml. After incubation of the C57BL/6 cells at 37°C for 30 minutes in an atmosphere of 5% CO2 and 95% air, the cells were sedimented and washed 3 times in medium E. Both cell suspensions were diluted in medium E to 5 x 10^6 cells/ml. 100µl of each of the responder and stimulator cell suspensions were aliquoted into the wells of 96 well flat bottom microtitre plates containing 50 µl of test compound at an appropriate dilution (initially 50 µM diluted in medium E from a stock solution at 100 mM in dimethyl sulphoxide) giving a final test compound concentration of 10 µM (final dilution). Compounds active at this concentration were tested at further final dilution of 1 µM, 0.1 µM and 0.01 µM and 0.001 µM to determine the concentration of test compound which causes 50% inhibition of the immune response (IC50). After four days of culture at 37°C in a humidified atmosphere of 5% CO2 and 95% air, 1 µCi of tritiated thymidine in 20 µl of medium E was added to each well and the plates incubated for a further 24 hours. Cells were then harvested onto Inotech G7 glass fibre filter mats using an Inotech cell harvester. The filters were transferred to vials to which 2 ml of Packard Emulsifier-Safe scintillation fluid was added and the radioactivity from the incorporated thymidine was counted in a Packard liquid scintillation counter. The counts per minute (CPM) reflect the degree of lymphocyte proliferation. The data were analysed to determine the percentage inhibition of lymphocyte proliferation by the test compound. […]

| IC50 [2] [µM] | SMILES | minimal effective dose [1] [mg/kg] | IC50 [3] [µM] |
| --- | --- | --- | --- |
| 52 | O=C(CCCN1CCC(CCn2ccnc2)CC1)c1ccccc1 [Example 88, 4-[2-(Imidazol-1-yl)ethyl]-1-(4-oxo-4-phenylbutyl)piperidine] | ≤ 30 | – |
| 34 | c1ccc(CCCC2CCN(CCn3ccnc3)CC2)cc1 [Example 96, 1-[2-(imidazol-1-yl)ethyl]-4-(3-phenylpropyl)piperidine, dihydrochloride monohydrate] | – | 0.01 |
| 58 | c1ccc(CCCN2CCCC(CCn3ccnc3)C2)cc1 (stereo not drawn) [Example 99, 3-[2-(Imidazol-l-yl)ethyl]-1-(3-phenylpropyl)piperidine] | 100 | – |
| 27 | c1ccc(CCCN2CCCCC2CCn2ccnc2)cc1 (stereo not drawn) [Example 100, 2-[2-(Imidazol-1-yl)ethyl]-1-(3-phenylpropyl)piperidine] | 100 | – |
| 100 | c1ccc(CCCN2CCC(CCn3nccn3)CC2)cc1 [Example 120, 1-(3-Phenylpropyl)-4-[2-(2H-1,2,3-triazol-2-yl)ethyl]piperidine] | – | 4.2 |

Second part, the compound before the results:

| SMILES | IC50 [2] [µM] | minimal effective dose [1] [mg/kg] | IC50 [3] [µM] |
| --- | --- | --- | --- |
| c1ccc(CCCN2CCCC(Cn3ccnc3)C2)cc1 (stereo not drawn) [Example 101, 3-Imidazol-1-ylmethyl-1-(3-phenylpropyl)piperidine] | 18 | 100 | – |
| CC(C)c1nccn1CCC1CCN(CCCc2ccccc2)CC1 [Example 106, 4-[2-(2-Isopropylimidazol-1-yl)ethyl]-1-(3-phenylpropyl)piperidine] | 22 | – | 0.5 |
| CCc1nccn1CCC1CCN(CCCc2ccccc2)CC1 [Example 107, 4-[2-(2-Ethylimidazol-1-yl)ethyl]-1-(3-phenylpropyl)piperidine] | 22 | – | ≤ 0.01 |
| CCCc1nccn1CCC1CCN(CCCc2ccccc2)CC1 [Example 110, 1-(3-Phenylpropyl)-4-[2-(2-propylimidazol-1-yl)ethyl]piperidine] | 20 | – | 0.2 |
| c1ccc(CCCN2CCC(CCn3ncnn3)CC2)cc1 [Example 121, 1-(3-Phenylpropyl)-4-[2-(2H-tetrazol-2-yl)ethyl]piperidine] | – | 100 | ≤ 1 |
| c1ccc2c(c1)CCC(CN1CCC(CCn3ccnc3)CC1)C2 (stereo not drawn) [Example 125, 4-[2-(Imidazol-1-yl)ethyl]-1-(1,2,3,4-tetrahydronaphth-2-ylmethyl)piperidine] | – | 30 | 2.2 |
| CC(CCN1CCC(CCn2ccnc2)CC1)c1ccccc1 (stereo not drawn) [Example 126, 4-[2-(Imidazol-1-yl)ethyl]-1-(3-phenylbutyl)piperidine] | – | ≤ 100 | 3.7 |

— patent publication EP0705258B1, “AZOLYL-CYCLIC AMINE DERIVATIVES WITH IMMUNOMODULATORY ACTIVITY” (Knoll AG, priority 1993, dated 1995)
